According to patent US7238703B2, “Azabicyclic, azatricyclic and azaspirocyclic derivatives of aminocyclohexane NMDA, 5HT3, and neuronal nicotinic receptor antagonists” (priority 2002, dated 2007):
Structures can show the parent of a compound that is named as a salt. Where two headings read alike, the source gives them in different places.

Assays:
[1] = target: NMDA receptor ([3H]-(+)-MK-801 site); assay: [3H]-(+)-MK-801 receptor binding, rat cortex membranes; details: for Ki: glycine 10 μM, glutamate 10 μM, mean, n=3
Description: Male Sprague-Dawley rats (200-250 g) were decapitated and their brains were removed rapidly. The cortex was dissected and homogenized in 20 volumes of ice-cold 0.32 M sucrose using a glass-Teflon homogenizer. The homogenate was centrifuged at 1000× g for 10 min. The pellet was discarded and the supernatant centrifuged at 20,000× g for 20 min. The resulting pellet was re-suspended in 20 volumes of distilled water and centrifuged for 20 min at 8000× g. Then the supernatant and the buffy coat were centrifuged at 48,000× g for 20 min in the presence of 50 mM Tris-HCl, pH 8.0. The pellet was then re-suspended and centrifuged two to three more times at 48,000× g for 20 min in the presence of 50 mM Tris-HCl, pH 8.0. All centrifugation steps were carried out at 4° C. After resuspension in 5 volumes of 50 mM Tris-HCl, pH 8.0 the membrane suspension was frozen rapidly at −80° C.
On the day of assay the membranes were thawed and washed four times by resuspension in 50 mM Tris-HCl, pH 8.0 and centrifugation at 48,000× g for 20 min. and finally re-suspended in 50 mM Tris-HCl, pH 7.4. The amount of protein in the final membrane preparation (250-500 μg/ml) was determined according to the method of Lowry et al. (1951). Incubations were started by adding [^3H]-(+)-MK-801 (23.9 Ci/mmol, 5 nM, Dupont NEN) to vials with glycine (10 μM), glutamate (10 μM), and 125-250 μg protein (total volume 0.5 ml) and various concentrations of the agents tested (10 concentrations in duplicates). The incubations were continued at room temperature for 120 min (equilibrium was achieved under the conditions used). Non-specific binding was defined by the addition of unlabeled (+)-MK-801 (10 μM). Incubations were terminated using a Millipore filter system. The samples were rinsed twice with 4 ml of ice cold assay buffer over glass fibre filters (Schleicher & Schuell) under a constant vacuum. Following separation and rinse the filters were placed into scintillation liquid (5 ml; Ultima Gold) and radioactivity retained on the filters was determined with a conventional liquid scintillation counter (Hewlett Packard, Liquid Scintillation Analyser). […] Most antagonists were tested in 3 to 7 separate experiments.
IC50s in patch clamp and binding studies were calculated according to the four parameter logistic equation using the Grafit computer program (Erithacus Software, England). Ki value for binding studies were then determined according to Cheng and Prusoff. Binding values presented are means±SEM of 3-5 determinations (each performed in duplicate).

[2] = system: motor coordination (rotarod); assay: Ataxia / motor coordination (rotarod); assay type: in vivo, mice; details: ED50 ataxia divided by ED50 MES
Description: (§1) NMR female mice (18-28 g) housed 5 per cage were used for the maximal electroshock (MES) and motor impairment tests. All animals were kept with water and food ad libitum under a 12 hour light-dark cycle (light on at 6 a.m.) and at a controlled temperature (20±0.5 °C.). All experiments were performed between 10 a.m. and 5 p.m. Tested agents were injected 30 min. i.p. before the induction of convulsions if not stated otherwise (see below). All compounds were dissolved in 0.9% saline.
(§2) The MES test was performed together with tests for myorelaxant action (traction reflex) and motor coordination (rotarod). For the traction reflex test mice were placed with their forepaws on a horizontal rod and were required to place all 4 paws on the wire within 10 seconds. To test ataxia (motor coordination) mice were placed on an accelerating rotarod and were required to remain on the rod for 1 minute. […] These tests were followed by MES (100 Hz, 0.5 second shock duration, 50 mA shock intensity, 0.9 ms impulse duration, Ugo Basile) applied through corneal electrodes. The presence of tonic convulsions was scored (tonic extension of hind paws with minimum angle to the body of 90[…]). The aim was to obtain ED50s for all parameters scored (anticonvulsive activity and motor side effects) with use of the Litchfield Wilcoxon test for quantal dose responses. Division of the ED50 for side effects (ataxia or myorelaxation) by the ED50 for antagonism of electroshock convulsions was used as a therapeutic index (TI).
(§3) ED50s are presented with 95% confidence limits (Cl). Pearson product moment correlation analysis (Sigma Stat, Jandel Scientific) was used to compare in vitro potencies and in vivo anticonvulsant activity.

[3] = Ataxia / motor coordination (rotarod); assay type: in vivo, mice; details: mouse, in vivo, ip; NMR female mice, accelerating rotarod
Description: as §1, §2, §3

tonic convulsions (MES) = assay: Maximal electroshock (MES) anticonvulsive test; assay type: in vivo, mice; details: Mus musculus, ip, read-out: MES ED50
Description: as §1, §2, §3

[4] = Myorelaxant action (traction reflex); assay type: in vivo, mice; details: mouse, in vivo, ip; NMR female mice, i.p., traction reflex; read-out: Myorelaxation ED50
Description: as §1, §2
(§4) Pearson product moment correlation analysis (Sigma Stat, Jandel Scientific) was used to compare in vitro potencies and in vivo anticonvulsant activity.

traction reflex = assay: Myorelaxant action (traction reflex); assay type: in vivo, mice; details: for TI Myorelaxation: ED50 myorelaxation divided by ED50 MES; for Myorelaxation ED50: NMR female mice, i.p., traction reflex, in mg/kg
Description: as §1, §2, §4

NR1a/2A receptors = target: T1, NR1a/2A receptors (Homo sapiens, UniProt Q05586+Q12879); assay: NMDA receptor subtype expression in Xenopus oocytes, two-electrode voltage clamp; assay type: cell-based
T1 construct: expressed in transfected cells; host or cells: Xenopus laevis oocytes injected with subunit RNA
T1 sequence (Q12879 23-1464, other chains not shown): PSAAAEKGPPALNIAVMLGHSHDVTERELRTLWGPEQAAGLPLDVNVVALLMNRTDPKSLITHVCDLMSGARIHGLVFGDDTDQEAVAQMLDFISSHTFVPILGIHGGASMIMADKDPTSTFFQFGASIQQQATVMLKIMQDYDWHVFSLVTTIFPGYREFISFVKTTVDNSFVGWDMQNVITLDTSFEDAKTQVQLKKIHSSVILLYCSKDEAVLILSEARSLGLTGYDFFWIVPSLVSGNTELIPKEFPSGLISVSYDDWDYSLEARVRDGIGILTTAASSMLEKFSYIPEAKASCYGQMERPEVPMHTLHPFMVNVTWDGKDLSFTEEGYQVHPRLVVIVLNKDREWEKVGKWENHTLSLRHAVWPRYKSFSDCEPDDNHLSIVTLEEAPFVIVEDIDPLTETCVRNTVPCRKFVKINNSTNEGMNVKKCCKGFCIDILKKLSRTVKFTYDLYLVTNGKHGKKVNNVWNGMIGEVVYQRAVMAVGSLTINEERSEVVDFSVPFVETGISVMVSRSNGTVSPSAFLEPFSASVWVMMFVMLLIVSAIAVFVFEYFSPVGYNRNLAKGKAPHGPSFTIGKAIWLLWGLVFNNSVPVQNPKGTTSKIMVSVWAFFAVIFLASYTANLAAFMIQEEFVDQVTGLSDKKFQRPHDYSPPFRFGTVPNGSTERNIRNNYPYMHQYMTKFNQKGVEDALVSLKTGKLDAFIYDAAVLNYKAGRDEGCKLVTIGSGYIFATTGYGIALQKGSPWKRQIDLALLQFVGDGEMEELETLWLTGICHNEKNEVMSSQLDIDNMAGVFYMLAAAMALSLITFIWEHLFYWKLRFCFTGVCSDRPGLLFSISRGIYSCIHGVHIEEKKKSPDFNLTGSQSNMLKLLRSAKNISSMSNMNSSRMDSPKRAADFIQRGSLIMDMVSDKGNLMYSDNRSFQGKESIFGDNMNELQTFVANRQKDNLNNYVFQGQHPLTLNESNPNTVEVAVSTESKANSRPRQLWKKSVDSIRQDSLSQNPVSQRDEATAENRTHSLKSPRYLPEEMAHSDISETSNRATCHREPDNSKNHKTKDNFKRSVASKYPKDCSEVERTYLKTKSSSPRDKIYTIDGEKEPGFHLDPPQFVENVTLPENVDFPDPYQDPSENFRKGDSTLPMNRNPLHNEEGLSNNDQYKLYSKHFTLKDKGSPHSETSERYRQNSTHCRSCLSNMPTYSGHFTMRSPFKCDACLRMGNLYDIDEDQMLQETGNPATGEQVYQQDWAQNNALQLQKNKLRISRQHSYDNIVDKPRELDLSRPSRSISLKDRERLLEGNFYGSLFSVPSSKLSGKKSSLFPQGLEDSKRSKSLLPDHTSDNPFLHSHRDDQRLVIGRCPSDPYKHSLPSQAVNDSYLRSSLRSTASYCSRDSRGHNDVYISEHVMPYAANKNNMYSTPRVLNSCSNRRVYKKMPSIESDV
Description: Mature female Xenopus laevis were anaesthetized in 0.2% Tricaine on ice for 15 min prior to surgery. Oocytes were removed and incubated in 2 mg/ml collagenase (type II) in Ca^2+-free oocyte Ringer solution (82.5 mM NaCl, 2 mM KCl, 2 mM MgCl2, 5 mM HEPES, pH 7.5) for 30 min. at room temperature and washed thoroughly with OR-2 (100 mM NaCl, 2 mM KCl, 1 mM MgCl2, 2 mM CaCl2, 5 mM HEPES, pH 7.5). The remaining follicle cell layer was removed manually with fine forceps and the oocytes were kept in OR-2. The RNA was dissolved in DEPC-treated, sterile distilled water. RNA for the NMDA NR1a subunit was mixed 1:1 with RNA for the NR2A subunit. Likewise neuronal nicotinic α4 RNA was mixed 1:1 with RNA for the β2 subunit. Fifty to 100 nanoliters of each RNA mixture were injected in the oocyte's cytoplasm using a Nanoliter Injector (World Precision Instruments). The oocytes were incubated at 19° C. in OR-2 for the following 3 to 6 days.
The electrophysiological responses were obtained using the standard two-electrode voltage-clamp method (GeneClamp 500 amplifier), 2-6 days after injection. […] Recordings were made in a custom made chamber with 2 to 3 second exchange times. The bath solution was prepared Ca^2+-free, to avoid Ca^2+-induced Cl^− currents (100 mM NaCl, 2 mM KCl, 5 mM HEPES, 2 mM BaCl2, pH 7.35). NMDA receptors were activated by the manual co-application of 1 mM Glutamate and 10 μM Glycine for 30-40 secs every 2 to 3 mins to oocytes clamped at −70 mV. Neuronal nicotinic receptors were activated by application of 100 μM acetylcholine for 20-30 secs every 2 to 3 mins to oocytes clamped at −70 mV. After obtaining stable control responses, full concentration-response curves with antagonists were obtained by preincubating 6-7 different concentrations at log 3 intervals.
Only results from stable cells were accepted for inclusion in the final analysis i.e. showing at least 50% recovery of responses to NMDA following removal of the antagonist tested. Despite this, recovery from drug actions wasn't always 100% because of minor rundown or runup in some cells. When present, this was always compensated by basing the % antagonism at each concentration on both control and recovery and assuming a linear time course for this rundown. All antagonists were assessed at steady-state blockade with 6 to 7 concentrations on at least 4 cells. Equilibrium blockade was achieved within 1 to 3 agonist applications, depending on antagonist concentration.
Kinetic experiments were performed by applying various concentrations of unsaturated amino-alkyl-cyclohexanes (normally 5 in a log 3 dosing regime) for 10-20 seconds in the continuous presence of glutamate (100 μM and glycine 10 μM) for 90-180 seconds in Xenopus oocytes expressing NR1a/2A receptors. The perfusion system used for these experiments was a modified oocyte carousel system which allows rapid wash in and wash out of agonist and antagonist with change times less than one second. Exponential fits were made using the program TIDA for windows and most responses were well fitted by a single exponential. This same system was used to access the voltage-dependency of blockade, but the bath solution contained flufenamic acid (100 μM) to block endogenous voltage-activated and Ca^2+ activated Cl^− currents. Also, Ba^2+ (2 mM) was replaced by low concentrations of Ca^2+ (0.2 mM). Following equilibrium blockade by higher concentrations of antagonist (normally around 10 times the IC50), five ramps were driven from −70 mV to +30 mV over two seconds. Similar ramps were driven in bath solutions and for glutamate without antagonist, both before antagonist application and following recovery of responses. The leak currents in the absence of glutamate were substrated from the glutamate and glutamate plus antagonist curves. Voltage-dependency was then determined by comparing the glutamate and glutamate plus antagonist curves.

[5] = Xenopus oocytes, N=6, read-out: NMDA IC50

Row | Compound | Ki [1] [µM] | ED50 at 30 min [3] [mg/kg] | ED50 at 30 min [4] [mg/kg] | IC50 (NR1a/2A receptors; [5]) [µM] | ED50 (tonic convulsions (MES)) [mg/kg] | further results
1 | CC1(C)CC(C)(C)CC2(CCCN2)C1.Cl [MRZ 2/1004, 7,7,9,9-Tetramethyl-1-azaspiro[4.5]decane hydrochloride] | 10.5 | 24 | 27.5 |  |  | TI Ataxia [2]: 1.00; ED50 (tonic convulsions (MES); NMR female mice, i.p. 30 min before convulsions): 24.1 mg/kg; TI Myorelaxation (traction reflex): 1.14
2 | CC1CC2(C)CC(C)(C1)C(C)N2 (stereo not drawn) [MRZ 2029, 1,exo-3,5,exo,endo-7-Tetramethyl-6-azabicyclo[3.2.1]octane hydrochloride] | 13.2 | > 50 | > 50 | 36.1 | > 50 | 
3 | CCC12CC(C)(C)CC(C)(CN1)C2 (centres unmarked) [MRZ 2022, 5-Ethyl-1,3,3-trimethyl-6-azabicyclo[3.2.1]octane hydrochloride] | 14.4 |  |  |  |  | IC50 (NR1a/2A receptors): 13.9 µM
4 | CCC12CC(C)CC(C)(CN1)C2 (stereo not drawn) [MRZ 2023, 5-Ethyl-1,exo-3-dimethyl-6-azabicyclo[3.2.1]octane hydrochloride] | 23.3 | > 30 | > 30 | 16.1 | > 30 | 
5 | CC1CC2(C)CC(C)(C1)C(c1ccccc1)N2 (stereo not drawn) [MRZ 2028, 1,exo-3,5-Trimethyl-exo,endo-7-phenyl-6-azabicyclo[3.2.1]octane hydrochloride] | 3.21 |  |  | 10.3 |  | 
6 | CC1(C)CC(C)(C)CC2(CCCCN2)C1.Cl [MRZ 2/1013, 8,8,10,10-Tetramethyl-1-azaspiro[5.5]undecane hydrochloride] | 3.64 | 37.2 | 34.5 |  | 9.39 | IC50 (NR1a/2A receptors): 4.72 µM; TI Ataxia [2]: 3.97; TI Myorelaxation (traction reflex): 3.67
7 | CC1(C)CC2(C)CNC(C)(C1)C2.Cl (centres unmarked) [MRZ 2/1010, 1,3,3,5-Tetramethyl-6-azabicyclo [3.2.1]octane hydrochloride] | 2.59 | 24.9 |  |  | 5.91 | IC50 (NR1a/2A receptors): 0.76 µM; Hill (NR1a/2A receptors; Xenopus oocytes expressing NR1a/2A, glutamate 100 μM, glycine 10 μM, -70 mV): 0.63; Myorelaxation ED50 (traction reflex): 10.62
8 | CCC1CC2(C)CNC(C)(C1)C2 (stereo not drawn) [MRZ 2007, exo-3-Ethyl-1,5-dimethyl-6-azabicyclo[3.2.1]octane hydrochloride] | 5.46 | 50 | > 50 | 6.77 | > 50 | 
9 | CC1CC2(C)CNC(C)(C1)C2 (stereo not drawn) [MRZ 2011, 1,exo-3,5-Trimethyl-6-azabicyclo[3.2.1]octane hydrochloride] | 15.8 |  |  |  |  | 
10 | CN1CC2(C)CC(C)(C)CC1(C)C2.Cl (centres unmarked) [MRZ 2/1003, 1,3,3,5,6-Pentamethyl-6-azabicyclo [3.2.1]octane hydrochloride] | 7.4 | 20.6 |  |  | 16.2 | Myorelaxation ED50 (traction reflex): 16.77
11 | (+)-5-methyl-10,11-dihydro-5H-dibenzocyclohepten-5,10-imine maleate [[^3H]-(+)-MK-801, reference compound] |  |  |  |  |  | Kd ([1]; read-out: Kd of radioligand by Scatchard analysis): 0.0046 µM
